Data from patent publication US20050249697A1, “Compositions and methods for the inhibition of bone growth and resorption” (priority 2003, published 2005).
Where two headings read alike, the source gives them in different places.

Assays:
[1] = cited from earlier work
[2] = cited from earlier work; for Plasma Levels: Clinical Use, Anti-Inflammatory Effectiveness; for Plasma half-life: in vivo
[3] = tested on: Long Bone Critical Size Defect; test: Long bone critical size defect model: bone formation and resorption; type: in vivo, Sprague Dawley retired breeder male rats; settings: implant of polymer microspheres containing ≧0.5 g salicylic acid/cm^3 in a femur
Text: Nineteen (19) Sprague Dawley retired breeder male rats were employed in this experiment. In each animal, a 5 mm mid-shaft defect was created using an oscillating saw. The limbs were then stabilized using a custom 4-hole polymer plate and screws. In two groups of 6 rats each, the defects were filled with either the homopolymer or the copolymer. The remaining 7 rats had their defects filled with a collagen sponge to serve as controls. An equal number of animals from each group was sacrificed at 4 and 8 weeks post surgery. The only exception was that four control rats were used in the 8-week group. The defect sites were radiographed using a Hewlett-Packard Faxitron model 43804 and high resolution mammography film every 2 weeks until sacrifice. At term, the limbs were collected and prepared for non-decalcified histology. Mid-sagittal ground sections were prepared and stained using Sanderson's Rapid Bone Stain and Stevenel's Blue. New bone formed between inner-most fixation screws was measured on 2 slides per animal and averaged. Bone resorption, or loss, was also measured by approximating the original contours of the cortices, and measuring the difference in area relative to the remaining bone.

[4] = cited from earlier work; remark: listed apart in the source
[5] = Plasma diflunisal in rats after subcutaneous polydiflunisal microspheres or oral diflunisal; type: in vivo; settings: single oral dose
Text: Processes for making nanoparticle formulations are also known in the art, and need not be fully described in this patent. The surface eroding property of polymers such as polydiflunisal makes for solid, non-porous particles, e.g. nano- and micro-spheres, useful for sustained drug delivery, and their release duration may be controlled by varying particle diameter, e.g. larger microparticles biodegrade more slowly than smaller ones. Nano- and microparticles for pharmaceutical formulations may be designed to deliver an agent(s) or compound(s) incorporated into the monomer, oligomer or polymer backbone and optionally an agent(s) blended, appended to, or dispersed in the polymer. […] Microparticle formulations of about 1, 2, 5, 7.5, 10, 25, 50 to about 10, 15, 30, 50, 75, 100, 250 μm are suitable for use in a pharmaceutical, veterinary or other type of formulations. Similarly, nanoparticle formulations may be administered for various applications, having a particle size about 1, 2, 5, 10 to about 15, 20, 30, 50, 100, 250, 500 nm, or various ranges between any two of these values. […]

[6] = in vivo; cited from earlier work
[7] = cited from earlier work; remark: listed apart in the source

For `O=C(O)c1ccccc1O` [Salicylic Acid], the “Water Solubility” value [1] is listed as “High”, the “Plasma Levels” value [2] is listed as 150 to 300 µg/mL and the “Plasma half-life” value [2] is listed as 2.5 h. For the same molecule, the “effect of local delivery at site of bone defect or injury” value [3] was “prevents new bone growth, degradation and resorption”.
For `O=C(O)CCC(=O)O` [Succinic Acid], the “Rat Oral LD50” value ([4]; in vivo, po) is given as 8,530 mg/kg.
For `O=C(O)c1cc(-c2ccc(F)cc2F)ccc1O` [Diflunisal, 5-(2,4-difluoro-phenyl) salicylic acid], the “plasma drug level after dosing” value [5] is listed as “declined rapidly”, the LD50 [6] is listed as 439 mg/kg and the “Water Solubility” value [1] is listed as “Very Low”. For the same molecule, the “Plasma Levels” value [2] was 50 to 190 µg/mL, the “No. Metabolites” value ([2]; Metabolism) was 2 and the “Where Metabolized” value ([2]; Metabolism) was “Liver, Intestine”. The “Plasma half-life” value [2] was 8 to 12 h.
For `O=C(O)CCCCCCCCC(=O)O` [Sebacic Acid], the “Rat Oral LD50” value ([4]; oral) is given as 14,470 mg/kg.
For `CN1CC[C@]23c4c5ccc(O)c4O[C@H]2[C@@H](O)C=C[C@H]3[C@H]1C5` [morphine], the pain relief ([7]; 1 mg injected into chronically-inflamed gum tissue) is listed as “profound pain relief” and the pain relief ([7]; intra-articular injection of 3 mg in RA patients) is listed as “pain relief similar to that of 4 mg dexamethasone”.
